Laboratory results: the supplement of paper PMC10627819

Experiments:
S. aureus DSM 20231 [1] = assay: Bliss interaction score (quartile over a dose matrix) (fitness difference); higher = more antagonism (negative = synergy)
Procedure, shortened: (§1)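 The Bliss score is observed minus expected fitness, where expected fitness is the product of the single-drug fitness values inferred from the combination data. Fitness is the OD595 at the onset of stationary phase over the plate's robust no-drug mean, capped at 1. Scores are summarised by quartiles over technical, biological and donor/recipient replicates.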

S. aureus Newman [2] = assay: as above
Procedure, shortened: as §1

B. subtilis 168 = assay: as above
Procedure, shortened: as §1

S. pneumoniae D39V [3] = assay: as above
Procedure, shortened: as §1

S. aureus DSM 20231 [4] = assay: fitness (endpoint OD595 vs no drug) (fraction); higher = more growth
Procedure, shortened: (§2)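 Fitness compares growth at the stationary-phase transition with the robust mean of no-drug control wells, as a ratio of optical densities. The ratio is capped at 1. Wells of 384-well plates held 30 µl, or 55 µl for S. pneumoniae, inoculated at OD595 0.01. Readings at OD595 every 30 min for 14 h at 37 °C were corrected against the first reading.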

S. aureus Newman [5] = assay: as above
Procedure, shortened: as §2

S. pneumoniae D39V [6] = assay: as above
Procedure, shortened: as §2
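For Bliss interaction score (quartile over a dose matrix) in this document: first quartile when negative (synergy) and third quartile when positive (antagonism).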
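For fitness (endpoint OD595 vs no drug) in this document: OD595 on entry to stationary phase over no-drug wells; at most 1.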

CC1(C)S[C@@H]2[C@H](NC(=O)[C@H](N)c3ccc(O)cc3)C(=O)N2[C@H]1C(=O)O [Amoxicillin] + Cc1onc(-c2ccccc2)c1C(=O)N[C@@H]1C(=O)N2[C@@H]1SC(C)(C)[C@@H]2C(=O)O [Oxacillin]
Conditions	Bliss interaction score
B. subtilis 168	0.031
S. aureus DSM 20231 [1]	0.104
S. aureus Newman [2]	0.0431
S. pneumoniae D39V [3]	-0.0929

Conditions	fitness
S. aureus DSM 20231 [4], first compound 0.0625 µg/mL, partner 0.0156 µg/mL	0.52
S. aureus DSM 20231 [4], first compound 0.0625 µg/mL, partner 0.0312 µg/mL	0.56
S. aureus DSM 20231 [4], first compound 0.0625 µg/mL, partner 0.0625 µg/mL	0.459
S. aureus DSM 20231 [4], first compound 0.125 µg/mL, partner 0.0156 µg/mL	0.342
S. aureus DSM 20231 [4], first compound 0.125 µg/mL, partner 0.0625 µg/mL	0.263
S. aureus DSM 20231 [4], first compound 0.25 µg/mL, partner 0.0156 µg/mL	0.107
S. aureus DSM 20231 [4], first compound 0.25 µg/mL, partner 0.0312 µg/mL	0.0945
S. aureus DSM 20231 [4], first compound 0.25 µg/mL, partner 0.0625 µg/mL	0.06
S. aureus DSM 20231 [4], first compound 0.5 µg/mL, partner 0.0156 µg/mL	0.0188
S. aureus DSM 20231 [4], first compound 0.5 µg/mL, partner 0.0312 µg/mL	0.0143
S. aureus DSM 20231 [4], first compound 0.5 µg/mL, partner 0.0625 µg/mL	0.021
S. aureus Newman [5], first compound 0.0625 µg/mL, partner 0.0156 µg/mL	0.724
S. aureus Newman [5], first compound 0.0625 µg/mL, partner 0.0312 µg/mL	0.651
S. aureus Newman [5], first compound 0.0625 µg/mL, partner 0.0625 µg/mL	0.575
S. aureus Newman [5], first compound 0.125 µg/mL, partner 0.0156 µg/mL	0.674
S. aureus Newman [5], first compound 0.125 µg/mL, partner 0.0625 µg/mL	0.547
S. aureus Newman [5], first compound 0.25 µg/mL, partner 0.0156 µg/mL	0.663
S. pneumoniae D39V [6], first compound 0.0008 µg/mL, partner 0.01 µg/mL	0.985
S. pneumoniae D39V [6], first compound 0.0008 µg/mL, partner 0.02 µg/mL	0.831
S. pneumoniae D39V [6], first compound 0.0008 µg/mL, partner 0.04 µg/mL	0.33
S. pneumoniae D39V [6], first compound 0.0015 µg/mL, partner 0.005 µg/mL	≥ 1
S. pneumoniae D39V [6], first compound 0.0015 µg/mL, partner 0.01 µg/mL	0.977
S. pneumoniae D39V [6], first compound 0.0015 µg/mL, partner 0.02 µg/mL	0.861
S. pneumoniae D39V [6], first compound 0.0015 µg/mL, partner 0.04 µg/mL	0.266
S. pneumoniae D39V [6], first compound 0.003 µg/mL, partner 0.005 µg/mL	0.957
S. pneumoniae D39V [6], first compound 0.003 µg/mL, partner 0.01 µg/mL	0.882
S. pneumoniae D39V [6], first compound 0.003 µg/mL, partner 0.02 µg/mL	0.825
S. pneumoniae D39V [6], first compound 0.003 µg/mL, partner 0.04 µg/mL	0.12

fitness, S. pneumoniae D39V [6], one replicate
Conditions	partner 0.005 µg/mL	partner 0.01 µg/mL	partner 0.02 µg/mL
first compound 0.0008 µg/mL	≥ 1	–	–
first compound 0.006 µg/mL	0.587	0.476	0.147

CC1(C)S[C@@H]2[C@H](NC(=O)[C@H](N)c3ccc(O)cc3)C(=O)N2[C@H]1C(=O)O [Amoxicillin] + Cn1nnc(-c2ccc(-c3ccc(N4C[C@H](CO)OC4=O)cc3F)cn2)n1 [Tedizolid]
Conditions	Bliss interaction score
B. subtilis 168	-0.0425
S. aureus DSM 20231 [1]	-0.0515
S. aureus Newman [2]	-0.0673
S. pneumoniae D39V [3]	0.175

fitness
Conditions	partner 0.03125 µg/mL	partner 0.0625 µg/mL	partner 0.125 µg/mL	partner 0.25 µg/mL	partner 0.5 µg/mL
S. aureus DSM 20231 [4], first compound 0.0625 µg/mL	–	0.65	0.395	0.151	–
S. aureus DSM 20231 [4], first compound 0.125 µg/mL	–	–	0.184	0.0385	–
S. aureus DSM 20231 [4], first compound 0.25 µg/mL	–	0.0658	0.0466	0.0313	–
S. aureus Newman [5], first compound 0.0625 µg/mL	–	0.853	–	–	–
S. aureus Newman [5], first compound 0.125 µg/mL	–	0.807	–	–	–
S. pneumoniae D39V [6], first compound 0.0008 µg/mL	0.961	0.966	0.781	–	–
S. pneumoniae D39V [6], first compound 0.0015 µg/mL	0.949	0.94	0.788	0.692	0.306
S. pneumoniae D39V [6], first compound 0.003 µg/mL	0.96	0.933	0.759	0.691	0.339

fitness, one replicate
Conditions	partner 0.0625 µg/mL	partner 0.125 µg/mL	partner 0.25 µg/mL	partner 0.5 µg/mL
S. aureus DSM 20231 [4], first compound 0.5 µg/mL	0.015	0.0045	0.0057	–
S. pneumoniae D39V [6], first compound 0.0008 µg/mL	–	–	0.7	0.335
S. pneumoniae D39V [6], first compound 0.006 µg/mL	–	0.562	0.462	0.283

CC1(C)S[C@@H]2[C@H](NC(=O)[C@H](N)c3ccc(O)cc3)C(=O)N2[C@H]1C(=O)O [Amoxicillin] + O=C(O[C@@H]1Cc2c(O)cc(O)cc2O[C@@H]1c1cc(O)c(O)c(O)c1)c1cc(O)c(O)c(O)c1 [EGCG]
Conditions	Bliss interaction score
B. subtilis 168	0.0413
S. aureus DSM 20231 [1]	0.0606
S. aureus Newman [2]	0.0679
S. pneumoniae D39V [3]	-0.0544

fitness
Conditions	partner 12.5 µg/mL	partner 25 µg/mL	partner 50 µg/mL
S. aureus DSM 20231 [4], first compound 0.0625 µg/mL	0.528	0.516	0.513
S. aureus DSM 20231 [4], first compound 0.125 µg/mL	0.363	0.411	0.376
S. aureus DSM 20231 [4], first compound 0.25 µg/mL	0.171	0.0387	0.108
S. aureus DSM 20231 [4], first compound 0.5 µg/mL	0.0001	0.0081	0
S. aureus Newman [5], first compound 0.0625 µg/mL	0.751	0.714	0.638
S. aureus Newman [5], first compound 0.125 µg/mL	0.757	0.741	0.681
S. aureus Newman [5], first compound 0.25 µg/mL	0.729	0.751	–
S. pneumoniae D39V [6], first compound 0.0008 µg/mL	0.969	0.911	0.984
S. pneumoniae D39V [6], first compound 0.0015 µg/mL	0.92	0.922	–
S. pneumoniae D39V [6], first compound 0.003 µg/mL	0.851	0.912	0.894

S. pneumoniae D39V [6], first compound 0.006 µg/mL, one replicate
Conditions	fitness
partner 12.5 µg/mL	0.412
partner 25 µg/mL	0.545
partner 50 µg/mL	0.601

CO/N=C(\C(=O)N[C@@H]1C(=O)N2C(C(=O)[O-])=C(C[N+]3(C)CCCC3)CS[C@H]12)c1csc(N)n1 [Cefepime] + CC1=C\[C@@H](O)CC(=O)Cc2nc(co2)C(=O)N2CCC=C2C(=O)O[C@H](C(C)C)[C@H](C)/C=C/C(=O)NC\C=C\1 [Virginiamycin M1]
Conditions	Bliss interaction score
B. subtilis 168	0.062
S. aureus DSM 20231 [1]	0.0738
S. aureus Newman [2]	-0.0566
S. pneumoniae D39V [3]	0.0257

Conditions	fitness
S. aureus DSM 20231 [4], first compound 0.125 µg/mL, partner 0.0625 µg/mL	0.97
S. aureus DSM 20231 [4], first compound 0.125 µg/mL, partner 0.125 µg/mL	0.932
S. aureus DSM 20231 [4], first compound 0.125 µg/mL, partner 0.25 µg/mL	0.895
S. aureus DSM 20231 [4], first compound 0.25 µg/mL, partner 0.0625 µg/mL	0.78
S. aureus DSM 20231 [4], first compound 0.25 µg/mL, partner 0.125 µg/mL	0.902
S. aureus DSM 20231 [4], first compound 0.25 µg/mL, partner 0.25 µg/mL	0.862
S. aureus DSM 20231 [4], first compound 0.5 µg/mL, partner 0.0625 µg/mL	0.832
S. aureus DSM 20231 [4], first compound 0.5 µg/mL, partner 0.125 µg/mL	0.969
S. aureus DSM 20231 [4], first compound 0.5 µg/mL, partner 0.25 µg/mL	0.904
S. aureus Newman [5], first compound 0.125 µg/mL, partner 0.0625 µg/mL	0.936
S. aureus Newman [5], first compound 0.125 µg/mL, partner 0.125 µg/mL	0.932
S. aureus Newman [5], first compound 0.125 µg/mL, partner 0.25 µg/mL	0.943
S. aureus Newman [5], first compound 0.25 µg/mL, partner 0.0625 µg/mL	0.869
S. aureus Newman [5], first compound 0.25 µg/mL, partner 0.125 µg/mL	0.848
S. aureus Newman [5], first compound 0.25 µg/mL, partner 0.25 µg/mL	0.863
S. aureus Newman [5], first compound 0.5 µg/mL, partner 0.0625 µg/mL	0.768
S. aureus Newman [5], first compound 0.5 µg/mL, partner 0.125 µg/mL	0.792
S. aureus Newman [5], first compound 0.5 µg/mL, partner 0.25 µg/mL	0.775
S. pneumoniae D39V [6], first compound 0.007 µg/mL, partner 0.5 µg/mL	≥ 1
S. pneumoniae D39V [6], first compound 0.007 µg/mL, partner 1 µg/mL	≥ 1
S. pneumoniae D39V [6], first compound 0.007 µg/mL, partner 2 µg/mL	0.992
S. pneumoniae D39V [6], first compound 0.0078 µg/mL, partner 2 µg/mL	0.958
S. pneumoniae D39V [6], first compound 0.014 µg/mL, partner 0.5 µg/mL	≥ 1
S. pneumoniae D39V [6], first compound 0.014 µg/mL, partner 1 µg/mL	≥ 1
S. pneumoniae D39V [6], first compound 0.014 µg/mL, partner 2 µg/mL	≥ 1
S. pneumoniae D39V [6], first compound 0.0155 µg/mL, partner 2 µg/mL	0.946
S. pneumoniae D39V [6], first compound 0.028 µg/mL, partner 0.5 µg/mL	0.979
S. pneumoniae D39V [6], first compound 0.028 µg/mL, partner 1 µg/mL	0.956
S. pneumoniae D39V [6], first compound 0.028 µg/mL, partner 2 µg/mL	0.969
S. pneumoniae D39V [6], first compound 0.031 µg/mL, partner 2 µg/mL	0.851

fitness, one replicate
Conditions	first compound 0.0078 µg/mL	first compound 0.0155 µg/mL	first compound 0.031 µg/mL	first compound 0.125 µg/mL	first compound 0.25 µg/mL	first compound 0.5 µg/mL
S. aureus DSM 20231 [4], partner 0.5 µg/mL	–	–	–	0.887	0.892	0.866
S. aureus DSM 20231 [4], partner 1 µg/mL	–	–	–	0.86	0.878	0.948
S. aureus Newman [5], partner 0.5 µg/mL	–	–	–	0.865	0.819	0.732
S. aureus Newman [5], partner 1 µg/mL	–	–	–	0.873	0.916	0.768
S. aureus Newman [5], partner 2 µg/mL	–	–	–	0.888	0.798	0.706
S. pneumoniae D39V [6], partner 0.15 µg/mL	≥ 1	≥ 1	≥ 1	–	–	–
S. pneumoniae D39V [6], partner 0.3 µg/mL	≥ 1	≥ 1	0.963	–	–	–
S. pneumoniae D39V [6], partner 0.5 µg/mL	≥ 1	0.948	0.782	–	–	–
S. pneumoniae D39V [6], partner 1 µg/mL	0.958	0.962	0.686	–	–	–
